Test results reported in patent US6541630B1 (priority 1997, dated 2003).

SMILES	melting point
O=c1[nH]cnc2sc(Br)cc12 [Compound 6g, 6-Bromo-3,4-dihydrothieno[2,3-d]pyrimidine-4-one]	301 to 304 °C
O=c1[nH]cnc2cc(Br)sc12 [Compound 8a, 6-Bromo-3,4-dihydrothieno[3,2-d]pyrimidin-4-one]	238 to 240 °C
Cc1cc2ncn(C)c(=O)c2s1	188 to 190 °C
CC(=O)Nn1cnc2c(Br)csc2c1=O	273 °C
Cc1sc2c(=O)[nH]cnc2c1Br	320 to 322 °C
CC(=O)On1cnc2c(Br)csc2c1=O	159 to 162 °C
Nn1cnc2c(Br)csc2c1=O [Compound 6d, 3-Amino-7-bromo-3,4-dihydrothieno[3,2-d]pyrimidin-4-one]	181 to 183 °C
